According to publication PMC9122626 (2020):

Tested on: human telomeric G4 DNA, dAGGG(TTAGGG)3 (DNA, G4) AGGGTTAGGGTTAGGGTTAGGG
Experiment: CD melting (295 nm)
Conditions: Na+ 100 mM; peptide concentration not given

N[C@@H](Cc1ccc(O)cc1)C(=O)N[C@@H](CCC(=O)N[C@@H](CCC(=O)O)C(=O)O)C(=O)N[C@@H](CCC(=O)O)C(=O)O (racemic)
ΔTm: ~ 3 °C
